Laboratory results: PubChem BioAssay AID1996
Values after ≈ are worked out from the molar mass of the structure shown.

conditions: buffer; pH 7.4; 200.0 µM

Question: Which solubility kinetic does the source give for `O=C(c1ccc([N+](=O)[O-])cc1[N+](=O)[O-])N1CCc2ccccc21` here?
Answer: Its solubility kinetic is 4.2 µg/mL (≈ 13.4 µM).

Question: With `O=C(O)c1ccc(N2C(=O)CSC2=S)cc1` as the compound, how does the solubility kinetic read?
Answer: The solubility kinetic was over 38 µg/mL.

Question: For `CNC(=O)COc1ccc(Nc2nnc(C)c3ccccc23)cc1.Cl`, which solubility kinetic is on record?
Answer: Its solubility kinetic is over 53.8 µg/mL.

Question: With `CCOc1ccc(S(=O)(=O)N(CC)CC(=O)NC2CC2)cc1` as the compound, how does the solubility kinetic read?
Answer: Its solubility kinetic is over 49 µg/mL.

Question: With `COc1ccc2c(c1OC)C(=O)N(c1ccc(F)cc1)C2` as the compound, how does the solubility kinetic read?
Answer: The solubility kinetic was 3.8 µg/mL (≈ 13.2 µM).

Question: Which solubility kinetic does the source give for `Cc1ccc(Nc2nc(-c3cccnc3)cs2)cc1C` here?
Answer: Its solubility kinetic is 0.4 µg/mL (≈ 1.42 µM).

Question: For `O=P(c1ccccc1)(c1ccccc1)C(O)c1ccccn1` (stereo not given), which solubility kinetic is on record?
Answer: Its solubility kinetic is over 46.4 µg/mL.

Question: For `CC(C)C(C)N(Cc1cccc(C(=O)O)c1)C(=O)c1ccc2ccccc2n1` (stereo not given), which solubility kinetic is on record?
Answer: The solubility kinetic was 31.7 µg/mL (≈ 84.2 µM).

Question: Which solubility kinetic does the source give for `CN(C)C(=S)Nc1nc2ccccc2s1` here?
Answer: Its solubility kinetic is 5.4 µg/mL (≈ 22.8 µM).

Question: Which solubility kinetic does the source give for `CC(=O)NCCc1c[nH]c2ccc(O)cc12` here?
Answer: The solubility kinetic was over 32.7 µg/mL.

Question: For `O=C(CCC(=O)c1cccs1)NCc1ccccc1Cl`, which solubility kinetic is on record?
Answer: Its solubility kinetic is 45.4 µg/mL (≈ 147 µM).

Question: Which solubility kinetic does the source give for `CCCCNC(=S)Nc1ccc(F)cc1` here?
Answer: Its solubility kinetic is 30.1 µg/mL (≈ 133 µM).

Question: With `CN(CC(=O)O)S(=O)(=O)c1ccc2c(c1)n(C)c(=O)c(=O)n2C` as the compound, how does the solubility kinetic read?
Answer: The solubility kinetic was over 51.2 µg/mL.

Question: With `CCOc1ccc(-c2cnc3ccccc3n2)cc1` as the compound, how does the solubility kinetic read?
Answer: Its solubility kinetic is 0.8 µg/mL (≈ 3.2 µM).

Question: Which solubility kinetic does the source give for `CCN(CC)c1ccc(Nc2nc(-c3cccnc3)cs2)cc1` here?
Answer: The solubility kinetic was under 0.2 µg/mL.

Question: With `COC(=O)c1ccccc1SCc1csc(C)n1` as the compound, how does the solubility kinetic read?
Answer: Its solubility kinetic is 38.7 µg/mL (≈ 139 µM).

Question: For `Cc1ccc(S(=O)(=O)NC(=O)NC(C)c2ccc(F)cc2)cc1` (stereo not given), which solubility kinetic is on record?
Answer: Its solubility kinetic is over 50.5 µg/mL.

Question: For `O=C(COc1ccccc1)Nc1ccc(F)cc1`, which solubility kinetic is on record?
Answer: The solubility kinetic was over 36.8 µg/mL.

Question: Which solubility kinetic does the source give for `CC(C)Cn1c(=S)[nH]c2cc(C(=O)O)ccc2c1=O` here?
Answer: The solubility kinetic was over 41.7 µg/mL.

Question: For `CN(C)/C=C1\Cc2ccccc2C1=O`, which solubility kinetic is on record?
Answer: Its solubility kinetic is over 28.1 µg/mL.

Question: Which solubility kinetic does the source give for `Cc1ccc(/C=C2\SC(=S)N(C3CCS(=O)(=O)C3)C2=O)cc1` (stereo not given) here?
Answer: The solubility kinetic was under 0.8 µg/mL.

Question: With `CC(C)OCCCNC(=O)CN1CCN(Cc2ccc(Cl)cc2)C1=O` as the compound, how does the solubility kinetic read?
Answer: The solubility kinetic was over 55.2 µg/mL.

Question: With `O=[N+]([O-])c1cc(C(F)(F)F)ccc1NC1CCN(Cc2ccccc2)C1` (stereo not given) as the compound, how does the solubility kinetic read?
Answer: The solubility kinetic was 1.7 µg/mL (≈ 4.65 µM).

Question: For `COc1ccccc1C(=O)Nc1c(-c2ccccc2)nc2ccccn12`, which solubility kinetic is on record?
Answer: The solubility kinetic was 10 µg/mL (≈ 29.1 µM).

Question: For `CCCCNC1=NCCS1`, which solubility kinetic is on record?
Answer: The solubility kinetic was over 23.7 µg/mL.

Question: With `O=C(O)C1=NN(c2ccccc2)C(=O)C1` as the compound, how does the solubility kinetic read?
Answer: Its solubility kinetic is over 30.6 µg/mL.

Question: Which solubility kinetic does the source give for `CC(OC(=O)CN1C(=O)c2ccccc2C1=O)C(=O)NC1CCCCC1` (stereo not given) here?
Answer: The solubility kinetic was over 53.8 µg/mL.

Question: With `Cc1ccc(NC(=O)C2CCCN2C(=O)NC2CCCCC2)cc1` (stereo not given) as the compound, how does the solubility kinetic read?
Answer: Its solubility kinetic is 1.9 µg/mL (≈ 5.77 µM).

Question: For `COc1ccc(CNC(=O)CN(c2ccccc2OC)S(=O)(=O)c2cccs2)cc1`, which solubility kinetic is on record?
Answer: The solubility kinetic was 10.7 µg/mL (≈ 24 µM).

Question: For `CCc1ccc2oc(-c3ccc(NC(C)=O)cc3)nc2c1`, which solubility kinetic is on record?
Answer: Its solubility kinetic is 0.8 µg/mL (≈ 2.85 µM).

Question: With `Cc1ccc(OCC(=O)Nc2ccncc2)cc1` as the compound, how does the solubility kinetic read?
Answer: Its solubility kinetic is 35.1 µg/mL (≈ 145 µM).

Question: With `COc1ccc(N2C(=O)C(C)C(Cc3ccc(C)cc3)C2=O)cc1` (stereo not given) as the compound, how does the solubility kinetic read?
Answer: The solubility kinetic was 2.4 µg/mL (≈ 7.42 µM).

Question: For `CCOC(=O)CN1C(=O)C(=O)N(Cc2c(C)cc(C)cc2C)C1=O`, which solubility kinetic is on record?
Answer: The solubility kinetic was 14 µg/mL (≈ 42.1 µM).

Question: With `CCN(CCS(=O)(=O)c1ccc(Br)cc1)Cc1nc2ccccc2c(=O)[nH]1` as the compound, how does the solubility kinetic read?
Answer: Its solubility kinetic is 9.3 µg/mL (≈ 20.7 µM).

Question: Which solubility kinetic does the source give for `Cc1cc(C)n(-c2ccnc3cc(Cl)ccc23)n1` here?
Answer: The solubility kinetic was over 38.7 µg/mL.

Question: Which solubility kinetic does the source give for `COCCCN=CC1=C(O)CC(c2ccccc2)CC1=O` (stereo not given) here?
Answer: The solubility kinetic was over 43.1 µg/mL.

Question: With `Cc1ccc(CN2C(=O)C3CCCN3c3ncccc32)cc1` (stereo not given) as the compound, how does the solubility kinetic read?
Answer: The solubility kinetic was 33.3 µg/mL (≈ 114 µM).

Question: Which solubility kinetic does the source give for `COc1ccc(NS(=O)(=O)c2cccc(C(=O)O)c2)cc1S(=O)(=O)N1CCOCC1` here?
Answer: Its solubility kinetic is over 68.5 µg/mL.

Question: Which solubility kinetic does the source give for `O=C(Nc1ccc(N2CCOCC2)cc1)c1c(F)cccc1Cl` here?
Answer: Its solubility kinetic is 21.3 µg/mL (≈ 63.6 µM).

Question: With `Cc1ccc(CC2CC(=O)N(CCc3ccccc3)C2=O)cc1` (stereo not given) as the compound, how does the solubility kinetic read?
Answer: The solubility kinetic was 2.9 µg/mL (≈ 9.43 µM).

Question: With `CC1(C)CC2CC(C)(CN2Cc2cccc([N+](=O)[O-])c2)C1` (stereo not given) as the compound, how does the solubility kinetic read?
Answer: Its solubility kinetic is 5.2 µg/mL (≈ 18 µM).

Question: For `COc1ccc(NC(=S)N(Cc2cccnc2)Cc2ccco2)cc1`, which solubility kinetic is on record?
Answer: Its solubility kinetic is 44.8 µg/mL (≈ 127 µM).

Question: With `CCOC(=O)C1CCN(CCC(=O)Nc2cc(C)ccc2C)CC1` as the compound, how does the solubility kinetic read?
Answer: Its solubility kinetic is over 49.9 µg/mL.

Question: With `COc1ccc(-n2cc(-c3ccccc3)[nH]c2=S)c(OC)c1` as the compound, how does the solubility kinetic read?
Answer: The solubility kinetic was 3.3 µg/mL (≈ 10.6 µM).

Question: With `CCOc1ccc(S(=O)(=O)NC(C)C(=O)NCc2ccccn2)cc1` (stereo not given) as the compound, how does the solubility kinetic read?
Answer: The solubility kinetic was over 54.5 µg/mL.

Question: For `c1ccc2c(c1)NCC1CCCN21` (stereo not given), which solubility kinetic is on record?
Answer: The solubility kinetic was 12.7 µg/mL (≈ 72.9 µM).

Question: For `O=C(NCc1ccccc1Cl)c1ccc[nH]1`, which solubility kinetic is on record?
Answer: Its solubility kinetic is 31.5 µg/mL (≈ 134 µM).

Question: For `Cc1ccc2ccc(S(=O)(=O)NCc3ccccn3)cc2c1`, which solubility kinetic is on record?
Answer: The solubility kinetic was 7 µg/mL (≈ 22.4 µM).

Question: Which solubility kinetic does the source give for `COc1ccc(S(=O)(=O)NCCNC(=O)N2CCOCC2)cc1` here?
Answer: Its solubility kinetic is over 51.5 µg/mL.

Question: For `COc1ccc(/C=C/C(=O)O)cc1S(=O)(=O)N1CCCC1`, which solubility kinetic is on record?
Answer: The solubility kinetic was over 46.7 µg/mL.

Question: Which solubility kinetic does the source give for `CCC(C)NC(=O)CN1C(=O)NC2NC(=O)NC21` (stereo not given) here?
Answer: Its solubility kinetic is over 38.3 µg/mL.

Question: With `COc1cccc(C(=O)c2c[nH]c(C(=O)NCc3cccnc3)c2)c1` as the compound, how does the solubility kinetic read?
Answer: Its solubility kinetic is over 50.3 µg/mL.

Question: Which solubility kinetic does the source give for `Cc1[nH]nc(SCC(=O)N2CCCCCC2)c1[N+](=O)[O-]` here?
Answer: Its solubility kinetic is over 44.8 µg/mL.

Question: For `COc1ccc2cc(C(C)C(=O)N3CCC(C)CC3)ccc2c1` (stereo not given), which solubility kinetic is on record?
Answer: Its solubility kinetic is 18.8 µg/mL (≈ 60.4 µM).

Question: Which solubility kinetic does the source give for `CCOc1ccccc1NC(=O)C(NC(=O)C1CCC(C)CC1)C(C)C` (stereo not given) here?
Answer: The solubility kinetic was 4.9 µg/mL (≈ 13.6 µM).

Question: Which solubility kinetic does the source give for `Cc1c(C=O)c2cc(OCc3ccccc3)ccc2n1C` here?
Answer: The solubility kinetic was under 0.6 µg/mL.

Question: For `COC(=O)c1cc(NC(=O)c2c(C)noc2C)ccc1N1CCOCC1`, which solubility kinetic is on record?
Answer: The solubility kinetic was over 53.9 µg/mL.

Question: Which solubility kinetic does the source give for `Cc1csc2nc(NC(=O)c3ccccc3)sc(=O)c12` here?
Answer: The solubility kinetic was 0.9 µg/mL (≈ 2.98 µM).

Question: Which solubility kinetic does the source give for `CN(C)S(=O)(=O)N1CCC(CO)(CCc2ccccc2)CC1` here?
Answer: The solubility kinetic was over 49 µg/mL.

Question: Which solubility kinetic does the source give for `CN(CC(=O)NC1CCCCCC1)S(=O)(=O)c1cnc[nH]1` here?
Answer: Its solubility kinetic is over 47.2 µg/mL.
